The source of these data is US20260250318A1, “COMPOSITIONS AND METHODS FOR CROSSING THE BLOOD BRAIN BARRIER” (VOYAGER THERAPEUTICS, INC., priority 2022, published 2026).

Settings in all cases: synthetic library passage 3, intravenous, relative to wild-type AAV9
Experiment [1] relates to brain. The experiment can be described thus: NGS fold enrichment of synthetic library (passage 3) in C57Bl/6 mice, first cross-species screen. It is filed as in vivo. The procedure:
(§1) After creation of the synthetic library with the sub-selected variants, the synthetic library was screened (passage 3) in two NHPs (2-4 years of age) and two strains of mice, BALB/c (n=3, 6-8 weeks of age) and C57Bl/6 mice (n=3, 6-8 weeks of age), in a first cross-species evolution screen. The animals were injected intravenously with the synthetic library. After a period in vivo, (e.g., 28-days) RNA was extracted from nervous tissue, e.g., brain, spinal cord, and DRG of the NHPs and the brains of mice. Following RNA recovery and RT-PCR amplification, a systematic NGS enrichment analysis was performed, and the peptides comprised within the variants were identified and the capsid enrichment ratio for each variant compared to the wild-type AAV9 control was calculated (fold enrichment relative to wild-type AAV9) (Table 9). […] All animals were dosed intravenously at […] across the screen.

Experiment [2] relates to brain, spinal cord, and DRG of the NHPs. The experiment can be described thus: NGS fold enrichment of synthetic library (passage 3) in NHPs, first cross-species screen. It is filed as in vivo, cynomolgus macaques (Macaca fascicularis). The procedure: as §1
In experiment [3] the test system is brain. The experiment can be described thus: NGS fold enrichment of synthetic library (passage 3) in BALB/c mice, first cross-species screen. It is filed as in vivo. How it is done: as §1
[4] abbreviates: RNA from brain of C57Bl/6 mice, NGS.
Setting [5] is: RNA from spinal cord of NHPs, NGS.
[6] abbreviates: RNA from brain of BALB/c mice, NGS.

For GSGQNQQVGGKTVT, the “Fold enrichment over AAV9 in the brain of Mice (C57Bl/6)” value (“Fold enrichment over AAV9 … (C57Bl/6)” for short) in experiment [1] (RNA NGS, brain of C57Bl/6 mice) turned out to be 1.094 fold. Further, the “Fold enrichment over AAV9 in the brain of NHPs” value in experiment [2] (RNA NGS, brain of NHPs) was 1.032 fold. Besides, the “Fold enrichment over AAV9 in the spinal cord of NHPs” value in experiment [2] (RNA NGS, spinal cord of NHPs) came out at 6.195 fold. Further, in experiment [3] (RNA NGS, brain of BALB/c mice), the “Fold enrichment over AAV9 in the brain of Mice (BALB/c)” value (“Fold enrichment over AAV9 … (BALB/c)” below) is on record as 0.821 fold.
The matching figures for GFMSYKGSGQNQQT: 1.808 fold, 2.865 fold, 0.209 fold and 0.569 fold.
In the case of GSGQNQQTSQSPPT, in experiment [1] (setting [4]), the “Fold enrichment over AAV9 … (C57Bl/6)” value stood at 0.851 fold. The “Fold enrichment over AAV9 in the brain of NHPs” value in experiment [2] (RNA from brain of NHPs, NGS) is 1.194 fold. Besides, in experiment [2] (setting [5]), the “Fold enrichment over AAV9 in the spinal cord of NHPs” value was determined as 1.208 fold. Besides, in experiment [3] (setting [6]), the “Fold enrichment over AAV9 … (BALB/c)” value is on record as 0.478 fold.
As to GSDQNQQTMSSTRT, in experiment [1] (RNA NGS, brain of C57Bl/6 mice), the “Fold enrichment over AAV9 … (C57Bl/6)” value worked out at 1.306 fold. Further, the “Fold enrichment over AAV9 in the brain of NHPs” value in experiment [2] (RNA NGS, brain of NHPs) stood at 1.003 fold. Besides, the “Fold enrichment over AAV9 in the spinal cord of NHPs” value in experiment [2] (RNA NGS, spinal cord of NHPs) worked out at 2.428 fold. The “Fold enrichment over AAV9 … (BALB/c)” value in experiment [3] (RNA NGS, brain of BALB/c mice) stood at 0.835 fold.
The matching figures for GSGQNQHSVHNDQT: 0.521 fold, 1.428 fold, 0.000 fold and 0.515 fold.
On the same counts, the results for GAGLIMHSGQNQQT are 0.565 fold, 1.425 fold, 1.408 fold and 0.511 fold.
In the case of GSGQNVSMQVNQQT, the “Fold enrichment over AAV9 … (C57Bl/6)” value in experiment [1] (setting [4]) was determined as 0.357 fold. In addition, the “Fold enrichment over AAV9 in the brain of NHPs” value in experiment [2] (RNA from brain of NHPs, NGS) is listed as 1.341 fold. In addition, the “Fold enrichment over AAV9 in the spinal cord of NHPs” value in experiment [2] (setting [5]) was found to be 0.000 fold. For the same sequence, the “Fold enrichment over AAV9 … (BALB/c)” value in experiment [3] (setting [6]) is on record as 0.251 fold.
On the same counts, the results for GEVSRVLSGQNQQT are 1.150 fold, 1.318 fold, 0.437 fold and 0.440 fold.
For GRTDSHTSGQNQQT, the “Fold enrichment over AAV9 … (C57Bl/6)” value in experiment [1] (RNA NGS, brain of C57Bl/6 mice) was found to be 1.299 fold. For the same sequence, the “Fold enrichment over AAV9 in the brain of NHPs” value in experiment [2] (RNA NGS, brain of NHPs) is recorded as 2.913 fold. In experiment [2] (RNA NGS, spinal cord of NHPs), the “Fold enrichment over AAV9 in the spinal cord of NHPs” value is 1.510 fold. In experiment [3] (RNA NGS, brain of BALB/c mice), the “Fold enrichment over AAV9 … (BALB/c)” value is listed as 0.704 fold.
On the same counts, the results for GSGQLRSLSTNQQT are 1.310 fold, 1.622 fold, 6.855 fold and 0.382 fold.
On the same counts, the results for GSGHLFQSGQNQQT are 0.751 fold, 1.057 fold, 0.615 fold and 0.386 fold.
The matching figures for GSFYPSSTGQNQQT: 0.420 fold, 2.047 fold, 2.374 fold and 0.277 fold.
For the sequence GSGQNQYLRLELQT, the “Fold enrichment over AAV9 … (C57Bl/6)” value in experiment [1] (RNA NGS, brain of C57Bl/6 mice) is 0.416 fold. For the same sequence, the “Fold enrichment over AAV9 in the brain of NHPs” value in experiment [2] (RNA NGS, brain of NHPs) amounted to 1.101 fold. The “Fold enrichment over AAV9 in the spinal cord of NHPs” value in experiment [2] (RNA NGS, spinal cord of NHPs) is reported as 0.000 fold. The “Fold enrichment over AAV9 … (BALB/c)” value in experiment [3] (RNA NGS, brain of BALB/c mice) was determined as 0.839 fold.
The matching figures for GLSWPSTSGQNQQT: 0.910 fold, 2.238 fold, 0.000 fold and 0.610 fold.
As for GSRTLSNVGQNQQT, the “Fold enrichment over AAV9 … (C57Bl/6)” value in experiment [1] (RNA NGS, brain of C57Bl/6 mice) is 0.617 fold. In experiment [2] (RNA NGS, brain of NHPs), the “Fold enrichment over AAV9 in the brain of NHPs” value came to 1.640 fold. Besides, the “Fold enrichment over AAV9 in the spinal cord of NHPs” value in experiment [2] (RNA NGS, spinal cord of NHPs) was determined as 3.219 fold. Further, the “Fold enrichment over AAV9 … (BALB/c)” value in experiment [3] (RNA NGS, brain of BALB/c mice) amounted to 0.542 fold.
With GSNMGVPLGQNQQT, the “Fold enrichment over AAV9 … (C57Bl/6)” value in experiment [1] (RNA NGS, brain of C57Bl/6 mice) amounted to 0.334 fold. The “Fold enrichment over AAV9 in the brain of NHPs” value in experiment [2] (RNA NGS, brain of NHPs) turned out to be 2.049 fold. Also, in experiment [2] (RNA NGS, spinal cord of NHPs), the “Fold enrichment over AAV9 in the spinal cord of NHPs” value was determined as 2.448 fold. Besides, in experiment [3] (RNA NGS, brain of BALB/c mice), the “Fold enrichment over AAV9 … (BALB/c)” value was 0.420 fold.
